Source: publication PMC11881035, “^68Ga-Labeled Glycopeptides as Effective Tools for Liver Function Imaging” (Molecular Pharmaceutics, 2025)
Where a SMILES comes first, the peptide text is derived from it. The star is where a group is joined. X1 = O=C(CCCCc1cn([C@@H]2O[C@H](CO)[C@H](O)[C@H](O)[C@H]2O)nn1)*; NODAGA = O=C(O)CN1CCN(CC(=O)O)CCN(C(CCC(=O)*)C(=O)O)CC1; GABA = NCCCC(=O)O

System: healthy male C57BL6 mouse
Experiment: PET/MR imaging in C57BL6 mice, time activity curves
Assay type: in vivo
Protocol: The ^68Ge/^68Ga generator, devices for analytical HPLC, semipreparative HPLC, mass spectrometry, radio-thin layer chromatography, gamma counter and animal models for biodistribution and imaging studies including the image reconstruction procedures were the same as described before.[22] Stability assays in PBS and human blood serum, protein binding as well as determination of log D values followed established protocols.[25] Binding affinities (IC50) of selected ligands were determined in an isolated receptor-based assay according to a previously published procedure with minor modifications.[22] Dilutions of nonradioactive complexes were made with PBS + 0.1% BSA (10^–5–10^–12 M). Preparation of [^125I]I-Asialoorosomucoid which serves as the radioactive standard ligand has been published recently.[21]
Animal experiments were performed in accordance with the Austrian animal experiments law (BGBl. I Nr. 114/2012) and the institution’s animal welfare standards as approved by the Austrian Federal Ministry of Education, Science and Research (BMBWF, 2022–0.311.708). Imaging experiments were conducted at Werner Siemens Imaging Center (Tübingen, Germany) according to the German animal welfare act as approved by the local authorities (R5/19 G, R09/21 G). […]

With `NC(=O)CNC(=O)CNC(=O)[C@H](CCCCNC(=O)CCCCc1cn([C@@H]2O[C@H](CO)[C@H](O)[C@H](O)[C@H]2O)nn1)NC(=O)CNC(=O)CNC(=O)[C@H](CCCCNC(=O)CCCCc1cn([C@@H]2O[C@H](CO)[C@H](O)[C@H](O)[C@H]2O)nn1)NC(=O)CNC(=O)CNC(=O)[C@H](CCCCNC(=O)CCCCc1cn([C@@H]2O[C@H](CO)[C@H](O)[C@H](O)[C@H]2O)nn1)NC(=O)CNC(=O)CNC(=O)[C@H](CCCCNC(=O)CCCCc1cn([C@@H]2O[C@H](CO)[C@H](O)[C@H](O)[C@H]2O)nn1)NC(=O)CNC(=O)CNC(=O)[C@H](CCCCNC(=O)CCCCc1cn([C@@H]2O[C@H](CO)[C@H](O)[C@H](O)[C@H]2O)nn1)NC(=O)CNC(=O)CNC(=O)[C@H](CCCCNC(=O)CCCCc1cn([C@@H]2O[C@H](CO)[C@H](O)[C@H](O)[C@H]2O)nn1)NC(=O)CNC(=O)CNC(=O)[C@H](CCCCNC(=O)CCCCc1cn([C@@H]2O[C@H](CO)[C@H](O)[C@H](O)[C@H]2O)nn1)NC(=O)CNC(=O)CNC(=O)[C@H](CCCCNC(=O)CCCCc1cn([C@@H]2O[C@H](CO)[C@H](O)[C@H](O)[C@H]2O)nn1)NC(=O)CNC(=O)CNC(=O)[C@H](CCCCNC(=O)CCCCc1cn([C@@H]2O[C@H](CO)[C@H](O)[C@H](O)[C@H]2O)nn1)NC(=O)CCCNC(=O)CCC(C(=O)O)N1CCN(CC(=O)O)CCN(CC(=O)O)CC1` (some centres unmarked) [[^68Ga]Ga-NODAGA-NonaLysan, metal not drawn] ({NODAGA-GABA}-K(X1)GGK(X1)GGK(X1)GGK(X1)GGK(X1)GGK(X1)GGK(X1)GGK(X1)GGK(X1)GG-NH2) as the molecule, how does the “time of fast liver accumulation” value (PET/MR, C57BL6 mouse, 1 MBq (100 pmol)) read?
Its value is no more than 2 min.

What about the “time of rapid tracer accumulation in liver (time-activity curves)” value (followed by stable retention) of the same molecule?
Its value is no more than 5 min.
